Measurements published in the NIST ThermoML archive (doi:10.1016/j.fluid.2005.05.012).
Several values for one entry are separate records, joined by “and”; a condition that tells them apart may be missing. Identical values can stand only once. ± gives the expanded uncertainty stated by the source.

Assays:
[1] = 101.33 kPa, Liquid
[2] = xn = mol fraction of the nth substance listed; conditions: 101.33 kPa, Liquid, x1 = 1

| Structure (SMILES) | mass density ([1]; 293.15 K) | viscosity ([1]; 293.15 K) [mPa·s] | mass density ([1]; 298.15 K) [kg/m3] | viscosity ([1]; 298.15 K) [mPa·s] | mass density ([1]; 303.15 K) | viscosity ([1]; 303.15 K) [mPa·s] | mass density ([2]; 293.15 K) [kg/m3] | viscosity ([2]; 293.15 K) [mPa·s] | mass density ([2]; 298.15 K) [kg/m3] | viscosity ([2]; 298.15 K) [mPa·s] | mass density ([2]; 303.15 K) [kg/m3] | viscosity ([2]; 303.15 K) [mPa·s] |
| --- | --- | --- | --- | --- | --- | --- | --- | --- | --- | --- | --- | --- |
| CC(C)CO [2-methyl-1-propanol] | 801.58 ± 0.57 kg/m3 | 3.994 ± 0.044 | 798.09 ± 0.57 | 3.334 ± 0.037 | 794.09 ± 0.58 kg/m3 | 2.794 ± 0.032 | – | – | – | – | – | – |
| CN1CCNCC1 [N-methylpiperazine] | 903.8 ± 0.36 kg/m3 and 903.79 ± 0.36 kg/m3 and 903.78 ± 0.36 kg/m3 | 2.1 ± 0.024 | 899.8 ± 0.37 | 1.841 ± 0.021 | 894.52 ± 0.38 kg/m3 and 894.54 ± 0.38 kg/m3 and 894.55 ± 0.38 kg/m3 | 1.624 ± 0.019 | – | – | – | – | – | – |
| CCCCO [butan-1-ol] | 809.97 ± 0.55 kg/m3 | 2.938 ± 0.033 | 806.15 ± 0.56 | 2.572 ± 0.029 | 802.14 ± 0.57 kg/m3 | 2.271 ± 0.026 | – | – | – | – | – | – |
| CCO [ethanol] | 789.32 ± 0.59 kg/m3 | 1.17 ± 0.014 | 785.06 ± 0.6 | 1.078 ± 0.013 | 780.68 ± 0.61 kg/m3 | 0.982 ± 0.012 | – | – | – | – | – | – |
| CO [methanol] | 791.09 ± 0.59 kg/m3 | 0.593 ± 0.008 | 786.48 ± 0.6 | 0.551 ± 0.008 | 781.22 ± 0.61 kg/m3 | 0.509 ± 0.008 | – | – | – | – | – | – |

More lines, now with the values ahead:

| mass density ([1]; 293.15 K) | viscosity ([1]; 293.15 K) [mPa·s] | mass density ([1]; 298.15 K) [kg/m3] | viscosity ([1]; 298.15 K) [mPa·s] | mass density ([1]; 303.15 K) | viscosity ([1]; 303.15 K) [mPa·s] | mass density ([2]; 293.15 K) [kg/m3] | viscosity ([2]; 293.15 K) [mPa·s] | mass density ([2]; 298.15 K) [kg/m3] | viscosity ([2]; 298.15 K) [mPa·s] | mass density ([2]; 303.15 K) [kg/m3] | viscosity ([2]; 303.15 K) [mPa·s] | Structure (SMILES) |
| --- | --- | --- | --- | --- | --- | --- | --- | --- | --- | --- | --- | --- |
| 803.79 ± 0.56 kg/m3 | 2.194 ± 0.025 | 799.74 ± 0.57 | 1.945 ± 0.023 | 795.68 ± 0.58 kg/m3 | 1.73 ± 0.02 | – | – | – | – | – | – | CCCO [propan-1-ol] |
| – | – | – | – | – | – | 803.79 ± 0.56 | 2.194 ± 0.025 | 799.74 ± 0.57 | 1.945 ± 0.023 | 795.68 ± 0.58 | 1.73 ± 0.02 | CCCO [propan-1-ol] + CN1CCNCC1 |
| 785.84 ± 0.6 kg/m3 | 2.405 ± 0.028 | 781.3 ± 0.61 | 2.062 ± 0.024 | 777.41 ± 0.61 kg/m3 | 1.782 ± 0.021 | – | – | – | – | – | – | CC(C)O [propan-2-ol] |
| – | – | – | – | – | – | 785.84 ± 0.6 | 2.405 ± 0.028 | 781.3 ± 0.61 | 2.062 ± 0.024 | 777.41 ± 0.61 | 1.782 ± 0.021 | CC(C)O [propan-2-ol] + CN1CCNCC1 |
